According to patent publication US12054487B2, “Muscarinic acetylcholine M1 receptor antagonists” (Contineum Therapeutics, Inc., priority 2018, dated 2024):

Experiments:
Format in all cases: cell-based
[1] = molecular target: T1, M2 (Homo sapiens, UniProt P08172); assay: In vitro functional assay of muscarinic acetylcholine receptor activity, M2; conditions: antagonist activity; M2 method not separately described
T1 sequence (P08172 1-466): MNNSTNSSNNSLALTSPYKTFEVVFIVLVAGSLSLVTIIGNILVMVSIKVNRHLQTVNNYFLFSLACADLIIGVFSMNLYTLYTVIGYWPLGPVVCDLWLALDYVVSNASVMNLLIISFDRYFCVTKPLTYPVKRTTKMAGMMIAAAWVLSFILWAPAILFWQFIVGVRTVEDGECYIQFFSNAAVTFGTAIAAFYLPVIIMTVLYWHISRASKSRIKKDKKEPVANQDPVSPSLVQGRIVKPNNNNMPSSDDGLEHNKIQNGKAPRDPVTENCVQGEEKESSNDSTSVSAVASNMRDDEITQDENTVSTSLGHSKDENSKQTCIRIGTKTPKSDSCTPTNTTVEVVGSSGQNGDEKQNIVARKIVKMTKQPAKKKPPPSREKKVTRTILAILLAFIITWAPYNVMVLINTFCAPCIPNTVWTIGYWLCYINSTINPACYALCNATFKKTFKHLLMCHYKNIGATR

[2] = molecular target: T2, human M1 receptor (Homo sapiens, UniProt P11229); assay: In vitro functional assay of muscarinic acetylcholine receptor activity (aequorin calcium flux, antagonist mode vs EC80 acetylcholine), M1; conditions: CHO-K1 cells stably expressing human M1 receptor with Aequorin; decrease in EC80 acetylcholine response
T2 construct: host or cells: CHO-K1
T2 sequence (P11229 1-460): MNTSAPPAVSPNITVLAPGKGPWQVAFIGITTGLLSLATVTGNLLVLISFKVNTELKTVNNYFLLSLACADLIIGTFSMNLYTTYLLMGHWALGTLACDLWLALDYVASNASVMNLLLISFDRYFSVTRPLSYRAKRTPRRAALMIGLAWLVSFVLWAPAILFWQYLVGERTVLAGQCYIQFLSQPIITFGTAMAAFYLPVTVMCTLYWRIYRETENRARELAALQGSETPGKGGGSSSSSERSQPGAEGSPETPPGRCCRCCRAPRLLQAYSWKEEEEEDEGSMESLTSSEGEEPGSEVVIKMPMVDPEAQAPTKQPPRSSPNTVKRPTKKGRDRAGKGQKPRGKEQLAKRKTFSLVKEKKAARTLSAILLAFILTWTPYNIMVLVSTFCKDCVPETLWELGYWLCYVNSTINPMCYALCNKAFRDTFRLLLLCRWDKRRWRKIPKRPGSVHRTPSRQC
In short: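 Antagonism at M1 was measured as a concentration-dependent reduction of the EC80 acetylcholine-evoked aequorin luminescence, from which IC50 was derived. Human M1 CHO-K1 aequorin cells were first loaded with 5 uM coelenterazine h for 4 h and exposed to compound for 30 min at room temperature.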

[3] = molecular target: M3 (Homo sapiens, UniProt P20309); assay: In vitro functional assay of muscarinic acetylcholine receptor activity, M3; conditions: antagonist activity; M3 method not separately described
Chain of M3 (P20309 whole entry): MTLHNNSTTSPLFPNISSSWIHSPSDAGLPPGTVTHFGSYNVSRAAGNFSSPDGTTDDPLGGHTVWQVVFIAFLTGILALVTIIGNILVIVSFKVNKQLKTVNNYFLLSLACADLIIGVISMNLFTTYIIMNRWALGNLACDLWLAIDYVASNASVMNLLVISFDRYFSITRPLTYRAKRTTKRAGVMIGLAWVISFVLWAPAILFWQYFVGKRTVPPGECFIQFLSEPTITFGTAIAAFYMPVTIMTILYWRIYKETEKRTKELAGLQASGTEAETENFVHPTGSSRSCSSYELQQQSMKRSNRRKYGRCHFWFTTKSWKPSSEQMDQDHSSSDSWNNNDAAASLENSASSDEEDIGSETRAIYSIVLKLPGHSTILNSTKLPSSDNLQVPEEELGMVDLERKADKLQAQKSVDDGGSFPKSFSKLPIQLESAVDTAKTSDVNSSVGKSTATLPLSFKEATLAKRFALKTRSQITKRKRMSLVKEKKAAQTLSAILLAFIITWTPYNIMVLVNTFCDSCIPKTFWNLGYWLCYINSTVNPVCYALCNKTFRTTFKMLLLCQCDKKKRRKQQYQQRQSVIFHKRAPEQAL

| IC50 [1] [nM] | IC50 [2] [nM] | IC50 [3] [nM] | SMILES |
| --- | --- | --- | --- |
| 1000 to 10000 | 100 to 1000 | 1000 to 10000 | O=C1[C@@H](CCCc2cccn3nccc23)C[C@H]2CN(c3ccc(F)cn3)CCN12 [Example 87, (7S,8aS)-2-(5-fluoropyridin-2-yl)-7-(3-(pyrazolo[1,5-a]pyridin-4-yl)propyl)hexahydropyrrolo[1,2-a]pyrazin-6(2H)-one] |
| 1000 to 10000 | < 100 | 1000 to 10000 | O=C1[C@@H](CCCc2cccn3nccc23)C[C@H]2CN(c3ncc(F)cn3)CCN12 [Example 88, (7S,8aS)-2-(5-fluoropyrimidin-2-yl)-7-(3-(pyrazolo[1,5-a]pyridin-4-yl)propyl)hexahydropyrrolo[1,2-a]pyrazin-6(2H)-one] |

Further lines, the molecule ahead of its results:

| SMILES | IC50 [1] [nM] | IC50 [2] [nM] | IC50 [3] [nM] |
| --- | --- | --- | --- |
| N#Cc1ccc(N2CCN3C(=O)[C@@H](CNCc4cccc5ncnn45)C[C@H]3C2)nc1 [Example 5, 6-((7R,8aS)-7-((([1,2,4]triazolo[1,5-a]pyridin-5-ylmethyl)amino)methyl)-6-oxohexahydropyrrolo[1,2-a]pyrazin-2(1H)-yl)nicotinonitrile] | 1000 to 10000 | 100 to 1000 | > 10000 |
| O=C1[C@@H](CCCc2cccc3ncnn23)C[C@H]2CN(c3ccc(OC(F)F)cn3)CCN12 [Example 39, (7S,8aS)-7-(3-([1,2,4]triazolo[1,5-a]pyridin-5-yl)propyl)-2-(5-(difluoromethoxy)pyridin-2-yl)hexahydropyrrolo[1,2-a]pyrazin-6(2H)-one] | > 10000 | 100 to 1000 | 1000 to 10000 |
| Cc1ccc(N2CCN3C(=O)[C@@H](CCCc4cccc5ncnn45)C[C@H]3C2)nc1 [Example 40, (7S,8aS)-7-(3-([1,2,4]triazolo[1,5-a]pyridin-5-yl)propyl)-2-(5-methylpyridin-2-yl)hexahydropyrrolo[1,2-a]pyrazin-6(2H)-one] | > 10000 | < 100 | > 10000 |
| O=C1C(CCCc2cccc3ncsc23)C[C@H]2CN(c3ccncc3F)CCN12 (mixture of isomers) [Example 9, (8aS)-7-(3-(benzo[d]thiazol-7-yl)propyl)-2-(3-fluoropyridin-4-yl)hexahydropyrrolo[1,2-a]pyrazin-6(2H)-one] | 1000 to 10000 | 100 to 1000 | > 10000 |
| O=C1[C@@H](CCCc2cccc3ncnn23)C[C@H]2CN(c3ccc(C(F)(F)F)cn3)CCN12 [Example 32, (7S,8aS)-7-(3-([1,2,4]triazolo[1,5-a]pyridin-5-yl)propyl)-2-(5-(trifluoromethyl)pyridin-2-yl)hexahydropyrrolo[1,2-a]pyrazin-6(2H)-one] | 100 to 1000 | < 100 | 1000 to 10000 |
